Assays:
Format in all cases: cell-based, human
FGFR signaling pathway = experiment: CELx multiple pathway test, impedance biosensor cell adhesion, FGF/BGJ398 pair; conditions: activator FGF
Text: (§1) Biosensor and transducer: A 96-well impendence E-Plate (ACEA, San Diego, CA) was placed onto an xCELLigence RTCA MP Station impendence biosensor (ACEA, San Diego, CA). The biosensor measured simultaneously the impedance of every well. The change in impedance for a particular well is proportional to the number of cells and type of attachment the cells have with the impedance microplate. Changes in impedance indicate a response to perturbation of these small cell populations. Coatings: The 96-E-Plate were wells were coated with fibronectin and or collagen. Collagen is purchased from Advanced BioMatrix (Carlsbad, CA) and fibronectin from Sigma-Aldrich (St. Louis, MO). Tissue and cell samples: A total of 18 samples of human tumor cells from breast, lung, colon, ovarian, kidney, bladder cancer were studied. For each of these six different cancer types, tumor cell samples from three different patients were tested. Any biomarkers that are used to guide selection of targeted therapy are listed in Table 18 for each patient if they were present. Signaling Pathways activator agent and targeted therapeutic pairs: Eleven different signaling pathways were studied in each human tumor cell sample using […] signaling pathway activator agent and targeted therapeutic pairs. Each of the signaling pathway activator agent and targeted therapeutic pairs affect the same signaling pathway. Each of the signaling pathway activator agents is a well-characterized and specific agonist of its associated signaling pathway and each of the targeted therapeutic agents is a well-characterized and specific antagonist of the same associated signaling pathway. The signaling pathway activator agents and targeted therapeutics used to characterize the activity level of the associated signaling pathway are summarized in Table 16 below:
(§2) Other Reagents: Standard media antibiotics (e.g. penicillin, streptomycin) and other buffers were purchased and used as delivered from ATCC (Manassas, VA, USA) or Life Technologies (Grand Island, NY). Procedure: For each test of a patient cell sample with a pair of signaling pathway activator and targeted therapeutic agents, six wells were seeded with approximately 15,000 cells in 120 uL culture media. Twenty microliters of the targeted therapeutic agent were added to two wells of each patient's cells and 20 microliters of standard media were added to the other four wells for each patient 18 hours in advance of addition of the signaling pathway activator agent. Signaling pathway stimulation was initiated with the addition of 20 ul of the signaling pathway activator agent in the two wells that received a targeted therapeutic agent and in two additional wells for each patient's set of cells without the targeted therapeutic. The impedance recording of attachment and adhesion change was performed at 37° C., 5% C02. Data was recorded on a continuous basis throughout the test, where the data presented is from the initial baseline level of cell attachment compared to the subsequent effects following the targeted therapeutic agent and the signaling pathway activator agent additions on the 18 different patient samples. Results:
(§3) Table 17 presents the results, expressed as an output value, for each of the 167 tests performed using the methods described above. For each of the 18 patient samples, up to 11 different signaling pathways were tested. The output value represents the difference between the amount of cell adhesion change resulting from addition of the signaling pathway activator agent and the amount of cell adhesion change resulting from addition of the targeted therapeutic agent.

[1] = system: c-MET/HGF signaling pathway; experiment: CELx multiple pathway test, impedance biosensor cell adhesion, HGF/SGX-523 pair; conditions: activator HGF
Text: as §1
as §2, with “samples.” for “samples. Results:”
as §3, with “For” for “Table 17 presents the results, expressed as an output value, for each of the 167 tests performed using the methods described above. For”

EGFR signaling pathway = experiment: CELx multiple pathway test, impedance biosensor cell adhesion, EGF/Neratinib pair; conditions: activator EGF
Text: as §1
as §2, with “samples.” for “samples. Results:”
as §3, with “For” for “Table 17 presents the results, expressed as an output value, for each of the 167 tests performed using the methods described above. For”

HER3 signaling pathway = experiment: CELx multiple pathway test, impedance biosensor cell adhesion, NRG1/Neratinib pair; conditions: activator NRG1
Text: as §1, §2, §3

IGFR signaling pathway = experiment: CELx multiple pathway test, impedance biosensor cell adhesion, IGF/Linsitinib pair; conditions: activator IGF
Text: as §1, §2, §3

## CCN1CCN(c2ccc(Nc3cc(N(C)C(=O)Nc4c(Cl)c(OC)cc(OC)c4Cl)ncn3)cc2)CC1 [BGJ398]
FGFR signaling pathway; C2 breast tumor cells
  output value: 14
FGFR signaling pathway; C21 breast tumor cells
  output value: 15
FGFR signaling pathway; C23 lung tumor cells
  output value: 1
FGFR signaling pathway; C24 lung tumor cells
  output value: −6
FGFR signaling pathway; C25 lung tumor cells
  output value: 14
FGFR signaling pathway; C34 breast tumor cells
  output value: 33
FGFR signaling pathway; C54 ovarian tumor cells
  output value: 65
FGFR signaling pathway; C62 colorectal tumor cells
  output value: 4
FGFR signaling pathway; C69 ovarian tumor cells
  output value: −19
FGFR signaling pathway; C71 colorectal tumor cells
  output value: 43
FGFR signaling pathway; C72 colorectal tumor cells
  output value: −20
FGFR signaling pathway; C77 ovarian tumor cells
  output value: 12
FGFR signaling pathway; C81 bladder tumor cells
  output value: 75
FGFR signaling pathway; C82 bladder tumor cells
  output value: −94
FGFR signaling pathway; C87 bladder tumor cells
  output value: 8
FGFR signaling pathway; C88 kidney tumor cells
  output value: 251
FGFR signaling pathway; C90 kidney tumor cells
  output value: −47
FGFR signaling pathway; C92 kidney tumor cells
  output value: 6

## Cn1cc(-c2ccc3nnc(Sc4ccc5ncccc5c4)n3n2)cn1 [SGX-523]
[1]; C2 breast tumor cells
  output value: 0
[1]; C21 breast tumor cells
  output value: 222
[1]; C23 lung tumor cells
  output value: 469
[1]; C24 lung tumor cells
  output value: 78
[1]; C25 lung tumor cells
  output value: 132
[1]; C34 breast tumor cells
  output value: 6
[1]; C54 ovarian tumor cells
  output value: 123
[1]; C62 colorectal tumor cells
  output value: −6
[1]; C69 ovarian tumor cells
  output value: −27
[1]; C71 colorectal tumor cells
  output value: 53
[1]; C72 colorectal tumor cells
  output value: −110
[1]; C77 ovarian tumor cells
  output value: 227
[1]; C81 bladder tumor cells
  output value: 419
[1]; C82 bladder tumor cells
  output value: 41
[1]; C87 bladder tumor cells
  output value: 28
[1]; C88 kidney tumor cells
  output value: −13
[1]; C90 kidney tumor cells
  output value: 368
[1]; C92 kidney tumor cells
  output value: 154

## CCOc1cc2ncc(C#N)c(Nc3ccc(OCc4ccccn4)c(Cl)c3)c2cc1NC(=O)/C=C/CN(C)C [Neratinib]
EGFR signaling pathway; C2 breast tumor cells
  output value: −19
EGFR signaling pathway; C21 breast tumor cells
  output value: 503
EGFR signaling pathway; C23 lung tumor cells
  output value: 298
EGFR signaling pathway; C24 lung tumor cells
  output value: 245
EGFR signaling pathway; C25 lung tumor cells
  output value: 209
EGFR signaling pathway; C34 breast tumor cells
  output value: 247
EGFR signaling pathway; C54 ovarian tumor cells
  output value: 654
EGFR signaling pathway; C62 colorectal tumor cells
  output value: 28
EGFR signaling pathway; C69 ovarian tumor cells
  output value: 614
EGFR signaling pathway; C71 colorectal tumor cells
  output value: 179
EGFR signaling pathway; C72 colorectal tumor cells
  output value: 5
EGFR signaling pathway; C77 ovarian tumor cells
  output value: −78
EGFR signaling pathway; C81 bladder tumor cells
  output value: 344
EGFR signaling pathway; C82 bladder tumor cells
  output value: 345
EGFR signaling pathway; C87 bladder tumor cells
  output value: 334
EGFR signaling pathway; C88 kidney tumor cells
  output value: −67
EGFR signaling pathway; C90 kidney tumor cells
  output value: 150
EGFR signaling pathway; C92 kidney tumor cells
  output value: 290
HER3 signaling pathway; C2 breast tumor cells
  output value: −1
HER3 signaling pathway; C21 breast tumor cells
  output value: 234
HER3 signaling pathway; C23 lung tumor cells
  output value: 373
HER3 signaling pathway; C24 lung tumor cells
  output value: 194
HER3 signaling pathway; C25 lung tumor cells
  output value: 116
HER3 signaling pathway; C34 breast tumor cells
  output value: 4
HER3 signaling pathway; C54 ovarian tumor cells
  output value: 244
HER3 signaling pathway; C62 colorectal tumor cells
  output value: 2
HER3 signaling pathway; C69 ovarian tumor cells
  output value: 178
HER3 signaling pathway; C71 colorectal tumor cells
  output value: 28
HER3 signaling pathway; C72 colorectal tumor cells
  output value: 5
HER3 signaling pathway; C77 ovarian tumor cells
  output value: 128
HER3 signaling pathway; C81 bladder tumor cells
  output value: 13
HER3 signaling pathway; C82 bladder tumor cells
  output value: 31
HER3 signaling pathway; C87 bladder tumor cells
  output value: 10
HER3 signaling pathway; C88 kidney tumor cells
  output value: 5
HER3 signaling pathway; C90 kidney tumor cells
  output value: −32
HER3 signaling pathway; C92 kidney tumor cells
  output value: 36

## C[C@]1(O)C[C@@H](c2nc(-c3ccc4ccc(-c5ccccc5)nc4c3)c3c(N)nccn32)C1 [Linsitinib]
IGFR signaling pathway; C2 breast tumor cells
  output value: 20
IGFR signaling pathway; C21 breast tumor cells
  output value: 69
IGFR signaling pathway; C23 lung tumor cells
  output value: 32
IGFR signaling pathway; C24 lung tumor cells
  output value: −61
IGFR signaling pathway; C25 lung tumor cells
  output value: −44
IGFR signaling pathway; C34 breast tumor cells
  output value: 34
IGFR signaling pathway; C54 ovarian tumor cells
  output value: −8
IGFR signaling pathway; C62 colorectal tumor cells
  output value: 6
IGFR signaling pathway; C69 ovarian tumor cells
  output value: −111
IGFR signaling pathway; C71 colorectal tumor cells
  output value: −2
IGFR signaling pathway; C72 colorectal tumor cells
  output value: −22
IGFR signaling pathway; C77 ovarian tumor cells
  output value: 56
IGFR signaling pathway; C81 bladder tumor cells
  output value: 351
IGFR signaling pathway; C82 bladder tumor cells
  output value: 21
IGFR signaling pathway; C87 bladder tumor cells
  output value: 210
IGFR signaling pathway; C88 kidney tumor cells
  output value: 143
IGFR signaling pathway; C90 kidney tumor cells
  output value: −607
IGFR signaling pathway; C92 kidney tumor cells
  output value: 73
